Measurements: patent US11851449B2, “Heterocyclic amide compounds having an RORvt inhibitory action” (TAKEDA PHARMACEUTICAL COMPANY LIMITED, priority 2013, dated 2023)
Where two headings read alike, the source gives them in different places.

How the values were obtained:
RORγt [1] = biological target: T1, RORγt (Homo sapiens, UniProt P51449); test: Jurkat reporter test (human IL-17 ROR response element luciferase reporter); type: cell-based; conditions: read-out: luminescence level inhibitory rate (%) at test compound 3 μM
T1 sequence (P51449 1-497 isoform P51449-2): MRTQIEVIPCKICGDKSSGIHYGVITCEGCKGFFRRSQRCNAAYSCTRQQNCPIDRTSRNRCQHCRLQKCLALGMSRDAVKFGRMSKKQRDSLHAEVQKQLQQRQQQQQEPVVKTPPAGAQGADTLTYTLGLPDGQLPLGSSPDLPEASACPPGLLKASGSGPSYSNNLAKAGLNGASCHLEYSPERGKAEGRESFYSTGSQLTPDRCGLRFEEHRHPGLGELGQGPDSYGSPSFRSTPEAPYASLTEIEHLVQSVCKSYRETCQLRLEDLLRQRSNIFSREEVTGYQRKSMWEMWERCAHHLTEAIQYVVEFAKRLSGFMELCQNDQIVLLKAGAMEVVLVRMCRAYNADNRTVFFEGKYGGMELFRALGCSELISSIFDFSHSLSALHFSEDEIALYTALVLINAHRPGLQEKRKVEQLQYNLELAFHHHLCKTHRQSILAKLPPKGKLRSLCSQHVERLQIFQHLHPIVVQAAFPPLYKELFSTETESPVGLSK
Method in brief: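 Luminescence (Bright-Glo, 10 min, RT) was measured after overnight compound treatment of electroporated Jurkat cells (1350 V, 10 ms interval, 3 pulses). The reaction medium was RPMI with 10% lipid-reduced FCS, 10 mM HEPES (pH 7.5) and 5 μM lovastatin.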

RORγt [2] = biological target: T1, RORγt; test: RORγt binding test (TR-FRET, fluorescent-labeled cholesterol); conditions: read-out: binding inhibitory rate (%) of fluorescent-labeled cholesterol to RORγt at test compound 1 μM
Method in brief: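 His-tagged RORγt and BODIPY-cholesterol were incubated with compound for 20 min at room temperature in Tris-HCl pH 7.5, 100 mM NaCl, 1 mM DTT and 0.1% BSA. Terbium anti-His antibody was then added for a further 20 min.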

RORγt [3] = biological target: T1, RORγt; test: Cofactor recruitment test (Alpha Screen, biotinylated SRC-1 peptide); type: biochemical; conditions: read-out: signal value inhibitory rate (%) at test compound 1 μM
Experimental: Cofactor Recruitment Test
Cofactor recruitment test was performed by Alpha Screen (Histidine Detection Kit, PerkinElmer) method. First, a test compound was diluted with an assay buffer (50 mM Tris-HCl (pH 7.5), 50 mM KCl, 1 mM DTT, 0.1% BSA) and added to a 384 well plate by 5 μL. […] The mixture was stood in a dark place for 1 hr, and the signal value was measured by Envision (PerkinElmer).

[4] = test compound 3 μM, Jurkat cells

| inhibition at 3 µM (RORγt [1]; [4]) [%] | SMILES | inhibition at 3 µM (RORγt [1]; Jurkat) [%] | inhibition at 1 µM (RORγt [2]) [%] | inhibition at 1 µM (RORγt [3]) [%] |
| --- | --- | --- | --- | --- |
| – | COc1ccc(C(NC(=O)Cc2cnn(C)c2)C(=O)Nc2ccc([Si](C)(C)C)cc2)cc1 (stereo not drawn) [Example 20, 2-(4-methoxyphenyl)-2-(((1-methyl-1H-pyrazol-4-yl)acetyl)amino)-N-(4-(trimethylsilyl)phenyl)acetamide] | 91.8 | 101 | 73 |
| – | COCc1ccc([C@@H](NC(=O)c2cc(O)no2)C(=O)Nc2cc(F)c([Si](C)(C)C)cc2F)cc1 [Example 98, N-((1R)-2-((2,5-difluoro-4-(trimethylsilyl)phenyl)amino)-1-(4-(methoxymethyl)phenyl)-2-oxoethyl)-3-hydroxy-1,2-oxazole-5-carboxamide] | 99.2 | 102 | 95.8 |
| – | COc1ccc(C(NC(=O)C2CNC(=O)C2)C(=O)Nc2ccc([Si](C)(C)C)c(C#N)c2)cc1 (stereo not drawn) [Example 27, N-(2-((3-cyano-4-(trimethylsilyl)phenyl)amino)-1-(4-methoxyphenyl)-2-oxoethyl)-5-oxopyrrolidine-3-carboxamide] | 96 | 103 | 92.5 |
| 102 | COCc1ccc([C@@H](NC(=O)Cc2cc(O)no2)C(=O)Nc2cc(F)c(C(C)(C)C)c(F)c2)cc1 [Example 114, (2R)—N-(4-tert-butyl-3,5-difluorophenyl)-2-(((3-hydroxy-1,2-oxazol-5-yl)acetyl)amino)-2-(4-(methoxymethyl)phenyl)acetamide] | – | 101 | 90.1 |
| 95.4 | COCc1ccc(C(NC(=O)[C@@H]2CNC(=O)C2)C(=O)Nc2ccc(CC(C)(C)C)c(F)c2)cc1 (mixture of isomers) [Example 110, (3S)—N-(2-((4-(2,2-dimethylpropyl)-3-fluorophenyl)amino)-1-(4-(methoxymethyl)phenyl)-2-oxoethyl)-5-oxopyrrolidine-3-carboxamide] | – | 99.6 | 71.1 |
| – | COCc1ccc([C@@H](NC(=O)Cn2cnccc2=O)C(=O)Nc2cc(F)c([Si](C)(C)C)cc2F)cc1 [Example 57, (2R)—N-(2,5-difluoro-4-(trimethylsilyl)phenyl)-2-(4-(methoxymethyl)phenyl)-2-(((6-oxopyrimidin-1(6H)-yl)acetyl)amino)acetamide] | 98.9 | 103 | 97.3 |
| – | COc1ccc(C(NC(=O)C2CNC(=O)C2)C(=O)Nc2ccc([Si](C)(C)C)cc2)cc1 (stereo not drawn) [Example 13, N-(1-(4-methoxyphenyl)-2-oxo-2-((4-(trimethylsilyl)phenyl)amino)ethyl)-5-oxopyrrolidine-3-carboxamide] | 92.6 | 101 | 51.1 |
| – | COCc1ccc(C(NC(=O)Cn2ncc3ccccc32)C(=O)Nc2cc(F)c([Si](C)(C)C)cc2F)cc1 (stereo not drawn) [Example 47, N-(2,5-difluoro-4-(trimethylsilyl)phenyl)-2-((1H-indazol-1-ylacetyl)amino)-2-(4-(methoxymethyl)phenyl)acetamide] | 100 | 100 | 92.4 |
| – | COCc1ccc([C@@H](NC(=O)Cn2ccc(=O)[nH]c2=O)C(=O)Nc2ccc([Si](C)(C)C)c(F)c2)cc1 [Example 59, (2R)-2-(((2,4-dioxo-3,4-dihydropyrimidin-1(2H)-yl)acetyl)amino)-N-(3-fluoro-4-(trimethylsilyl)phenyl)-2-(4-(methoxymethyl)phenyl)acetamide] | 99.2 | 102 | 96 |
| – | C[Si](C)(C)c1c(F)cc(NC(=O)C(NC(=O)Cn2cnccc2=O)C2CCOCC2)cc1F (stereo not drawn) [Example 1, N-(3,5-difluoro-4-(trimethylsilyl)phenyl)-2-(((6-oxopyrimidin-1(6H)-yl)acetyl)amino)-2-(tetrahydro-2H-pyran-4-yl)acetamide] | 97.3 | 100 | 72.7 |
| – | COc1ccc(C(NC(=O)C2CNC(=O)C2)C(=O)Nc2cc(F)c([Si](C)(C)C)c(F)c2)cc1 (stereo not drawn) [Example 37, N-(2-((3,5-difluoro-4-(trimethylsilyl)phenyl)amino)-1-(4-methoxyphenyl)-2-oxoethyl)-5-oxopyrrolidine-3-carboxamide] | 98.5 | 101 | 93.6 |
| 99.8 | COCc1ccc([C@@H](NC(=O)Cn2ccc(=O)[nH]c2=O)C(=O)Nc2ccc(C(C)(C)C)c(F)c2)cc1 [Example 116, (2R)—N-(4-tert-butyl-3-fluorophenyl)-2-(((2,4-dioxo-3,4-dihydropyrimidin-1(2H)-yl)acetyl)amino)-2-(4-(methoxymethyl)phenyl)acetamide] | – | 103 | 76.6 |
| 96.1 | COCc1ccc(C(NC(=O)[C@@H]2CNC(=O)C2)C(=O)Nc2ccc(C(C)(C)C)c(Cl)c2)cc1 (stereo partly drawn) [Example 104, (3S)—N-(2-((4-tert-butyl-3-chlorophenyl)amino)-1-(4-(methoxymethyl)phenyl)-2-oxoethyl)-5-oxopyrrolidine-3-carboxamide] | – | 101 | 74.9 |
| – | COCc1ccc(C(NC(=O)N2CC(O)C2)C(=O)Nc2ccc([Si](C)(C)C)c(F)c2)cc1 (stereo not drawn) [Example 34, N-(2-((3-fluoro-4-(trimethylsilyl)phenyl)amino)-1-(4-(methoxymethyl)phenyl)-2-oxoethyl)-3-hydroxyazetidine-1-carboxamide] | 99.2 | 101 | 98.9 |
| 97.4 | CC(C)(C)c1ccc(NC(=O)[C@H](NC(=O)[C@@H]2CNC(=O)C2)c2ccc3c(c2)CCO3)cc1F [Example 111, (3S)—N-((1R)-2-((4-tert-butyl-3-fluorophenyl)amino)-1-(2,3-dihydro-1-benzofuran-5-yl)-2-oxoethyl)-5-oxopyrrolidine-3-carboxamide] | – | 100 | 53 |
| – | COCc1ccc(C(C(=O)Nc2cc(F)c([Si](C)(C)C)cc2F)N(C)C(=O)c2cc(O)no2)cc1 (stereo not drawn) [Example 43, N-(2-((2,5-difluoro-4-(trimethylsilyl)phenyl)amino)-1-(4-(methoxymethyl)phenyl)-2-oxoethyl)-3-hydroxy-N-methyl-1,2-oxazole-5-carboxamide] | 100 | 102 | 96.1 |
| 97 | CC(C)(C)c1ccc(NC(=O)[C@H](NC(=O)[C@@H]2CNC(=O)C2)C2CCC(F)(F)CC2)cc1F [Example 7, (3S)—N-((1R)-2-((4-tert-butyl-3-fluorophenyl)amino)-1-(4,4-difluorocyclohexyl)-2-oxoethyl)-5-oxopyrrolidine-3-carboxamide] | – | 102 | 56.9 |
| 97.5 | CC(C)(C)c1ccc(NC(=O)[C@H](NC(=O)C(O)C(F)(F)F)C2CCOCC2)cc1Cl (single isomer, unassigned) [Example 11] | – | 102 | 32 |
| – | COCc1ccc([C@@H](NC(=O)Cn2c(=O)cc[nH]c2=O)C(=O)Nc2ccc([Si](C)(C)C)c(F)c2)cc1 [Example 60, (2R)-2-(((2,6-dioxo-3,6-dihydropyrimidin-1 (2H)-yl)acetyl)amino)-N-(3-fluoro-4-(trimethylsilyl)phenyl)-2-(4-(methoxymethyl)phenyl)acetamide] | 99.7 | 102 | 96.6 |
| – | COCc1ccc([C@@H](NC(=O)CN2C(=O)CNC2=O)C(=O)Nc2ccc([Si](C)(C)C)c(F)c2)cc1 [Example 62, (2R)-2-(((2,5-dioxoimidazolidin-1-yl)acetyl)amino)-N-(3-fluoro-4-(trimethylsilyl)phenyl)-2-(4-(methoxymethyl)phenyl)acetamide] | 97.8 | 99.9 | 96.3 |
| – | COc1ccc(C(NC(=O)Cn2cnc3ccccc32)C(=O)Nc2ccc([Si](C)(C)C)cc2)cc1 (stereo not drawn) [Example 289, 2-((1H-benzimidazol-1-ylacetyl)amino)-2-(4-methoxyphenyl)-N-(4-(trimethylsilyl)phenyl)acetamide] | 100 | 99.6 | 87.2 |
